Where a SMILES comes first, the peptide text is derived from it. [ ]: non-standard residue; d: D form. ξ: configuration not given here. ξαMeBip(2'-Et,4'-OMe) = CCc1cc(OC)ccc1-c1ccc(CC(C)(N)C(=O)O)cc1; ξBip(2'-Et-4'-OMe) = CCc1cc(OC)ccc1-c1ccc(CC(N)C(=O)O)cc1; ξαMePhe(2,6-F2) = CC(N)(Cc1c(F)cccc1F)C(=O)O; ξαMe(hhPhe) = CC(N)(CCCc1ccccc1)C(=O)O; ξαMePhe(2-F) = CC(N)(Cc1ccccc1F)C(=O)O; ξhhPhe = NC(CCCc1ccccc1)C(=O)O; ξαMeD = CC(N)(CC(=O)O)C(=O)O; ξαMeS = CC(N)(CO)C(=O)O; Aib = CC(C)(N)C(=O)O
Experiments:
[1] = Stability in human plasma; type: in vitro ADME; settings: 2 μM, 37° C.; for half-life: human, plasma, read-out: half-life (t1/2) in human plasma
Experimental: (§1) Different peptidomimetics (final concentration 2 μM) were incubated with either DPP IV (1:25 mU) or pooled human plasma (7.5 μL) or simulated gastric fluid (pH 1.5; composition HCl, NaCl and Pepsin) or simulated intestinal fluid (pH 7.5) or human liver microsomes, for 0, 2, 4, 6, 12 and 24 h (37° C.; 50 mM triethanolamine-HCl buffer; pH 7.8). […] Reactions were terminated by the addition of TFA/H2O ([…], 10% (v/v)). The reaction products were then applied to a Vydac C18 analytical column (4.6×250-mm) and the major degradation fragment separated from intact peptidomimetic. The column was equilibrated with TFA/H20, at a flow rate of 1 mL/min. Using 0.1% (v/v) TFA in 70% acetonitrile/H2O, the concentration of acetonitrile in the eluting solvent was raised from 0% to 28% over 10 min and from 28% to 42% over 30 min. The absorbance was monitored at 206 nm using UV detector and peaks were collected manually prior to ESI-MS analysis. Area under the curve was measured for test peptidomimetics and their metabolites and percentage degradation were calculated at each time point over a period of 24 h.

[2] = Stability in liver microsomes; type: in vitro ADME, human; settings: 2 μM, 37° C.; for half-life: human, microsomes, read-out: half-life (t1/2) in liver microsomes
Experimental: (§2) Reactions were terminated by the addition of TFA/H2O ([…], 10% (v/v)). […] The column was equilibrated with TFA/H20, at a flow rate of 1 mL/min. […] The absorbance was monitored at 206 nm using UV detector and peaks were collected manually prior to ESI-MS analysis.

[3] = system: RIN5F (Rat Insulinoma) cells; test: In vitro glucose-dependent insulin secretion (RIN5F cell assay); type: cell-based; settings: 16.7-mM glucose load, n = 3, mean ± S.D.
In short: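 Rat RIN5F cells were preincubated 40 min in Krebs-Ringer buffer with 1.1 mM glucose and 0.5% BSA, pH 7.4, then exposed to test peptidomimetics for 30 min at 37 °C with 16.7 mM or 0 mM glucose. Supernatant insulin was measured by rat insulin ELISA and normalised to total protein (BCA), as pg/μg.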

[4] = Stability in simulated intestinal fluid; type: in vitro ADME; settings: 2 μM, 37° C.; for half-life (t1/2) in simulated intestinal fluid / half-life: pH 7.5; for % degradation in 24 h when incubated with simulated intestinal fluid: pH 7.5, 24 h; for half-life: simulated gi fluid, read-out: half-life (t1/2) in simulated intestinal fluid
Experimental: as §2

DPP IV enzyme = DPP IV enzyme (Homo sapiens, UniProt P27487); test: Stability against DPP IV enzyme; type: in vitro ADME; settings: 2 μM, 37° C.; for half-life: read-out: half-life (t1/2) with DPP-IV enzyme
Sequence of DPP IV enzyme (P27487 whole entry, species assumed): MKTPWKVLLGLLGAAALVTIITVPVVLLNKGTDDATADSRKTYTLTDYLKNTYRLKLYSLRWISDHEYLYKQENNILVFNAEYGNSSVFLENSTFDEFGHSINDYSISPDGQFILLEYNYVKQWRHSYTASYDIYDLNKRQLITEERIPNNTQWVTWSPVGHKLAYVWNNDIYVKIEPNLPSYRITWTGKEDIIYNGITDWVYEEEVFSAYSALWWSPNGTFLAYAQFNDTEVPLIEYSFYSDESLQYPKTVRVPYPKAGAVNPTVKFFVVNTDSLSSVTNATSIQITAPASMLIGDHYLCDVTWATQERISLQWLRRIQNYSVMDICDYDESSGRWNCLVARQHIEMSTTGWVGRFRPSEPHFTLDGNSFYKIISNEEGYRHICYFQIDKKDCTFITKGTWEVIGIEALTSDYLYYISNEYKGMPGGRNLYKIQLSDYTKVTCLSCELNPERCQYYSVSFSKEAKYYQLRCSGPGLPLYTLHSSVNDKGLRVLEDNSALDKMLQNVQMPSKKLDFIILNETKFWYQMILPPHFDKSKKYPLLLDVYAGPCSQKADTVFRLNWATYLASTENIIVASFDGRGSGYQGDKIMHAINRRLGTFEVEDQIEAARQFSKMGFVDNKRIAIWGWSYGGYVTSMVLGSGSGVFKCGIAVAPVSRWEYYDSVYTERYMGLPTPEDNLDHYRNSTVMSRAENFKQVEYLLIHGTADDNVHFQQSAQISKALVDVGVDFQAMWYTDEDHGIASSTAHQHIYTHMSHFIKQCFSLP
Experimental: as §1

[5] = Stability in simulated gastric fluid; type: in vitro ADME; settings: 2 μM, 37° C.; for half-life (t1/2) in simulated gastric fluid / half-life: pH 1.5; for % degradation in 24 h when incubated with simulated gastric fluid: pH 1.5, 24 h; for half-life: simulated gi fluid, read-out: half-life (t1/2) in simulated gastric fluid
Experimental: as §2

Row | SMILES | % degradation in 24 h when incubated with human plasma [1] | half-life [1] | % degradation in 24 h when incubated with liver microsomes [2] | half-life [2] | half-life (t1/2) in simulated intestinal fluid [4] | % degradation in 24 h when incubated with simulated intestinal fluid [4] | % degradation in 24 h when incubated with DPP-IV enzyme (DPP IV enzyme) | half-life (DPP IV enzyme) | half-life (t1/2) in simulated gastric fluid [5] | % degradation in 24 h when incubated with simulated gastric fluid [5] | half-life (t1/2) in liver microsomes [2] | half-life [4] | half-life [5] | Insulin secretion ([3]; 0.1 nM test compd.) | Insulin secretion ([3]; 1 nM test compd.) | Insulin secretion ([3]; 10 nM test compd.)
1 | CCc1cc(OC)ccc1-c1ccc(CC(C)(NC(=O)C(C)(CC(=O)O)NC(=O)[C@H](CO)NC(=O)[C@@H](NC(=O)C(C)(Cc2c(F)cccc2F)NC(=O)[C@@H](NC(=O)CNC(=O)[C@H](CCC(N)=O)NC(=O)C(C)(C)NC(=O)[C@H](Cc2c[nH]cn2)NC(=O)[C@@H](N)C(C)C)[C@@H](C)O)[C@@H](C)O)C(=O)NC(CCCc2ccccc2)C(N)=O)cc1 (stereo partly shown) [compound 75] (H-VH[Aib]QGT[ξαMePhe(2,6-F2)]TS[ξαMeD][ξαMeBip(2'-Et,4'-OMe)][ξhhPhe]-NH2) | 75% | 8 h | 83% | 1 h | (6) h | 46% | 74% | 9 h | (8) h | 12% |  |  |  | 16.4 ± 0.12 pg/µg/h | 22.7 ± 0.17 pg/µg/h | 36.6 ± 0.05 pg/µg/h
2 | CCc1cc(OC)ccc1-c1ccc(CC(C)(NC(=O)C(C)(CC(=O)O)NC(=O)[C@H](CO)NC(=O)[C@@H](NC(=O)[C@H](Cc2ccccc2)NC(=O)[C@@H](NC(=O)CNC(=O)[C@H](CCC(N)=O)NC(=O)[C@H](C)NC(=O)[C@H](Cc2c[nH]cn2)NC(=O)[C@@H](N)C(C)C)[C@@H](C)O)[C@@H](C)O)C(=O)NC(CCCc2ccccc2)C(N)=O)cc1 (stereo partly shown) [compound 58] (H-VHAQGTFTS[ξαMeD][ξαMeBip(2'-Et,4'-OMe)][ξhhPhe]-NH2) | 69% | 8 h | 77% | 2 h | (6) h | 43% | 71% | 8 h |  | 11% |  |  | 7 h | 16.1 ± 0.22 pg/µg/h | 22.1 ± 0.26 pg/µg/h | 36.0 ± 0.36 pg/µg/h
3 | CCc1cc(OC)ccc1-c1ccc(CC(NC(=O)[C@H](CC(=O)O)NC(=O)[C@H](CO)NC(=O)[C@@H](NC(=O)[C@H](Cc2ccccc2)NC(=O)[C@@H](NC(=O)CNC(=O)[C@H](CCC(N)=O)NC(=O)[C@H](CO)NC(=O)[C@H](Cc2c[nH]cn2)NC(=O)[C@@H](N)C(C)C)[C@@H](C)O)[C@@H](C)O)C(=O)NC(C)(CCCc2ccccc2)C(N)=O)cc1 (stereo partly shown) [compound 81] (H-VHSQGTFTSD[ξBip(2'-Et-4'-OMe)][ξαMe(hhPhe)]-NH2) | 71% | 8 h | 78% | 1 h | (6) h | 40% | 70% | 9 h | (8) h | 14% |  |  |  | 16.8 ± 0.20 pg/µg/h | 22.7 ± 0.29 pg/µg/h | 36.6 ± 0.31 pg/µg/h

The next lines start with results.

Row | % degradation in 24 h when incubated with human plasma [1] | half-life [1] | % degradation in 24 h when incubated with liver microsomes [2] | half-life [2] | half-life (t1/2) in simulated intestinal fluid [4] | % degradation in 24 h when incubated with simulated intestinal fluid [4] | % degradation in 24 h when incubated with DPP-IV enzyme (DPP IV enzyme) | half-life (DPP IV enzyme) | half-life (t1/2) in simulated gastric fluid [5] | % degradation in 24 h when incubated with simulated gastric fluid [5] | half-life (t1/2) in liver microsomes [2] | half-life [4] | half-life [5] | SMILES | Insulin secretion ([3]; 0.1 nM test compd.) | Insulin secretion ([3]; 1 nM test compd.) | Insulin secretion ([3]; 10 nM test compd.)
4 | 00% | > 24 h | 33% |  |  | 00% | 00% | > 24 h |  | 00% | (5) h | > 24 h | > 24 h | CCc1cc(OC)ccc1-c1ccc(CC(NC(=O)C(C)(CC(=O)O)NC(=O)C(C)(CO)NC(=O)[C@@H](NC(=O)[C@H](Cc2ccccc2)NC(=O)[C@@H](NC(=O)CNC(=O)[C@H](CCC(N)=O)NC(=O)[C@H](C)NC(=O)[C@H](Cc2c[nH]cn2)NC(=O)[C@@H](N)C(C)C)[C@@H](C)O)[C@@H](C)O)C(=O)NC(C)(CCCc2ccccc2)C(N)=O)cc1 (stereo partly shown) [compound 108] (H-VHAQGTFT[ξαMeS][ξαMeD][ξBip(2'-Et-4'-OMe)][ξαMe(hhPhe)]-NH2) | 11.9 ± 0.17 pg/µg/h | 14.2 ± 0.13 pg/µg/h | 27.6 ± 0.16 pg/µg/h
5 | 77% | 8 h | 81% | 1 h | (6) h | 45% | 75% | 9 h | (8) h | 14% |  |  |  | CCc1cc(OC)ccc1-c1ccc(CC(C)(NC(=O)C(C)(CC(=O)O)NC(=O)[C@H](CO)NC(=O)[C@@H](NC(=O)C(C)(Cc2c(F)cccc2F)NC(=O)[C@@H](NC(=O)CNC(=O)[C@H](CCC(=O)O)NC(=O)[C@H](CO)NC(=O)[C@H](Cc2c[nH]cn2)NC(=O)[C@@H](N)C(C)C)[C@@H](C)O)[C@@H](C)O)C(=O)NC(C)(CCCc2ccccc2)C(N)=O)cc1 (stereo partly shown) [compound 201] (H-VHSEGT[ξαMePhe(2,6-F2)]TS[ξαMeD][ξαMeBip(2'-Et,4'-OMe)][ξαMe(hhPhe)]-NH2) | 15.4 ± 0.14 pg/µg/h | 21.2 ± 0.18 pg/µg/h | 35.6 ± 0.17 pg/µg/h
6 | 00% | > 24 h | 81% | 2 h |  | 00% | 00% | > 24 h |  | 52% |  | > 24 h | 4 h | CCc1cc(OC)ccc1-c1ccc(CC(C)(NC(=O)[C@H](CC(=O)O)NC(=O)C(C)(CO)NC(=O)[C@@H](NC(=O)C(C)(Cc2ccccc2F)NC(=O)[C@@H](NC(=O)CNC(=O)[C@H](CCC(=O)O)NC(=O)[C@H](C)NC(=O)[C@H](Cc2c[nH]cn2)NC(=O)[C@@H](N)C(C)C)[C@@H](C)O)[C@@H](C)O)C(=O)NC(C)(CCCc2ccccc2)C(N)=O)cc1 (stereo partly shown) [compound 170] (H-VHAEGT[ξαMePhe(2-F)]T[ξαMeS]D[ξαMeBip(2'-Et,4'-OMe)][ξαMe(hhPhe)]-NH2) | 12.3 ± 0.33 pg/µg/h | 14.8 ± 0.16 pg/µg/h | 28.1 ± 0.22 pg/µg/h
7 | 00% | > 24 h | 84% | 2 h |  | 00% | 00% | > 24 h |  | 55% |  | > 24 h | 4 h | CCc1cc(OC)ccc1-c1ccc(CC(NC(=O)[C@H](CC(=O)O)NC(=O)[C@H](CO)NC(=O)[C@@H](NC(=O)C(C)(Cc2ccccc2F)NC(=O)[C@@H](NC(=O)CNC(=O)[C@H](CCC(N)=O)NC(=O)[C@H](C)NC(=O)[C@H](Cc2c[nH]cn2)NC(=O)[C@@H](N)C(C)C)[C@@H](C)O)[C@@H](C)O)C(=O)NC(C)(CCCc2ccccc2)C(N)=O)cc1 (stereo partly shown) [compound 92] (H-VHAQGT[ξαMePhe(2-F)]TSD[ξBip(2'-Et-4'-OMe)][ξαMe(hhPhe)]-NH2) | 16.9 ± 0.22 pg/µg/h | 22.8 ± 0.31 pg/µg/h | 36.7 ± 0.34 pg/µg/h

Source: patent US20120264685A1 (priority 2009, published 2012)
